Experimental data as given in patent US5104492A, “Recovery of carboxylic acids from water by precipitation from organic solutions” (The Regents of the University of California, priority 1990, dated 1992).

What was measured:
[1] = Description: An aqueous solution of fumaric acid was extracted with methyl isobutyl ketone (MIBK).
[2] = Solubility in MIBK plus 0.064 M tri-octyl/decyl amine; assay type: physicochemical
Description: (§1) The use of MIBK plus 0.064 M tri-octyl/decyl amine as an organic phase was studied.

[3] = Solubility in octanol (Example 4 repeated); assay type: physicochemical
Description: as §1
The experiment of Example 4 was repeated using octanol as organic solvent.

[4] = Solubility in butyl ether (Example 4 repeated); assay type: physicochemical
Description: as §1
The experiment of Example 4 was repeated using butyl ether as organic solvent.

solubility relative to the level observed at saturation level of water [1]: less than 1/5th | amount of acid in MIBK extract ([1]; MIBK extract before stripping, […] by weight water): 0.0874 mol/L | solubility of the acid in the ketone ([1]; dry mibk): 15.8 mM | Acid Concentration ([2]; nearly anhydrous): 0.115 mol/L | Acid Concentration ([2]; water saturated): 0.158 mol/L | Acid Concentration ([3]; water 0.066 moles/liter): 0.0614 mol/L | Acid Concentration ([3]; water 1.54 moles/liter): 0.0899 mol/L | Acid Concentration ([3]; water 2.24 moles/liter): 0.0961 mol/L | Acid Concentration ([4]; water 0.0005 moles/liter): 0.0023 mol/L | Acid Concentration ([4]; water 0.084 moles/liter): 0.0036 mol/L
Structure (SMILES): O=C(O)/C=C/C(=O)O [fumaric acid]
